According to patent US20220289758A1, “7-OXA-3,4-DIAZABICYCLO [4.1.0] HEPT-4-EN-2-ONE COMPOUND AND HERBICIDE” (Nippon Soda Co., Ltd., priority 2019, published 2022):

Columns and labels:
Setaria faberi = assay: Foliar spraying treatment, weed killing rate; format: in vivo; details: 504 h, read-out: herbicidal activity; for pest or weed control at 250 g/ha: foliar spray, 250 g per hectare, after 3 weeks (Table 11); for pest or weed control at 1000 g/ha: foliar spray, 1,000 g per hectare, after 3 weeks (Table 10)
Procedure: (§1) (1) Preparation of Test Emulsion
(§2) POA allylphenyl ether (4.1 parts by weight), POE-POP glycol (1 part by weight), POE sorbitan laurate (0.8 parts by weight), glycerin (2.6 parts by weight), dimethylformamide (65.9 parts by weight), N-methylpyrrolidone (5.1 parts by weight), cyclohexanone (15.4 parts by weight), and aromatic hydrocarbons (5.1 parts by weight) were mixed and dissolved to prepare an emulsion. The compound of the present invention (4 mg) was dissolved in this emulsion (100 μL) to prepare a test emulsion. POA means “polyoxyalkylene”, POE means “polyoxyethylene”, and POP means “polyoxypropylene”.
(§3) (2) Foliar Spraying Treatment
(§4) A 150 cm^2 pot was filled with soil, and seeds of Avena sativa, Matricaria chamomilla, Setaria faberi, Digitaria ciliaris, Abutilon theophrasti and Amaranthus retroflexus were sown into the surface layer which was covered lightly with soil. Thereafter, they were grown in a greenhouse. When each plant grew to a plant height of 2 to 4 cm, the above test emulsion was diluted so that the amount of the active ingredient became a predetermined amount, and sprayed on the foliage with a small sprayer at a spray water volume of 250 L per hectare.
(§5) After 3 weeks, above ground weights of weeds in the untreated and treated areas were measured for each weed, and the weed killing rate was calculated by the following calculation formula.
(§6) (4) Calculation Formula for Weed Killing Rate
(§7) Weed killing rate (%)=[(above ground weight of weeds in untreated area)−(above ground weight of weeds in treated area)/(above ground weight of weeds in untreated area)]×100

Digitaria ciliaris = assay: Foliar spraying treatment, weed killing rate; format: in vivo; details: 504 h, read-out: herbicidal activity; for pest or weed control at 250 g/ha: foliar spray, 250 g per hectare, after 3 weeks (Table 13); for pest or weed control at 1000 g/ha: foliar spray, 1,000 g per hectare, after 3 weeks (Table 12)
Procedure: as §1, §2, §3, §4, §5, §6, §7

Abutilon theophrasti = assay: Foliar spraying treatment, weed killing rate; format: in vivo; details: 504 h, read-out: herbicidal activity; for pest or weed control at 250 g/ha: foliar spray, 250 g per hectare, after 3 weeks (Table 5); for pest or weed control at 1000 g/ha: foliar spray, 1,000 g per hectare, after 3 weeks (Table 4)
Procedure: as §1, §2, §3, §4, §5, §6, §7

Matricaria chamomilla = assay: Foliar spraying treatment, weed killing rate; format: in vivo; details: 504 h, read-out: herbicidal activity; for pest or weed control at 250 g/ha: foliar spray, 250 g per hectare, after 3 weeks (Table 7); for pest or weed control at 1000 g/ha: foliar spray, 1,000 g per hectare, after 3 weeks (Table 6)
Procedure: as §1, §2, §3, §4, §5, §6, §7

Amaranthus retroflexus = assay: Foliar spraying treatment, weed killing rate; format: in vivo; details: 504 h, read-out: herbicidal activity; for pest or weed control at 250 g/ha: foliar spray, 250 g per hectare, after 3 weeks (Table 15); for pest or weed control at 1000 g/ha: foliar spray, 1,000 g per hectare, after 3 weeks (Table 14)
Procedure: as §1, §2, §3, §4, §5, §6, §7

Compound	melting point	pest or weed control at 250 g/ha (Setaria faberi)	pest or weed control at 1000 g/ha (Setaria faberi)	pest or weed control at 250 g/ha (Digitaria ciliaris)	pest or weed control at 1000 g/ha (Digitaria ciliaris)	pest or weed control at 250 g/ha (Abutilon theophrasti)	pest or weed control at 1000 g/ha (Abutilon theophrasti)	pest or weed control at 250 g/ha (Matricaria chamomilla)	pest or weed control at 1000 g/ha (Matricaria chamomilla)	pest or weed control at 250 g/ha (Amaranthus retroflexus)	pest or weed control at 1000 g/ha (Amaranthus retroflexus)
COC12OC1(c1ccc(C(F)(F)F)cc1S(C)(=O)=O)C=NN(C)C2=O (centres unmarked) [Compound A-1, 1-methoxy-3-methyl-6-(2-(methylsulfonyl)-4-(trifluoromethyl)phenyl)-7-oxa-3,4-diazabicyclo [4.1.0] hept-4-en-2-one]	128 °C	≥ 80%	≥ 80%	≥ 80%	≥ 80%	≥ 80%	≥ 80%	≥ 80%	≥ 80%	≥ 80%	≥ 80%
COC12OC1(c1ccc(C(F)(F)F)c3c1CCCS3(=O)=O)C=NN(C)C2=O (centres unmarked) [Compound B-1, 1-methoxy-3-methyl-6-(1,1-dioxido-8-(trifluoromethyl)thiochroman-5-yl)-7-oxa-3,4-diazabicyclo [4.1.0] hept-4-en-2-one]		≥ 80%	≥ 80%	≥ 80%	≥ 80%	≥ 80%	≥ 80%	≥ 80%	≥ 80%	≥ 80%	≥ 80%
CN1N=CC2(c3ccc(C(F)(F)F)c4c3CCCS4(=O)=O)OC2(OCCON2C(=O)c3ccccc3C2=O)C1=O (centres unmarked) [Compound B-2]		≥ 80%		≥ 80%		≥ 80%		≥ 80%		≥ 80%	
CN1N=CC2(c3ccc(C(F)(F)F)c4c3CCCS4(=O)=O)OC2(OCc2ccn(CC(F)(F)F)n2)C1=O (centres unmarked) [Compound B-3]	112 to 117 °C	≥ 80%				≥ 80%				≥ 80%	
COC12OC1(c1ccc(C(F)(F)F)c(N=S3(=O)CCCCC3)c1Cl)C=NN(C)C2=O (centres unmarked) [Compound B-4]	158 to 161 °C	≥ 80%									
COC12OC1(c1ccc(C(F)(F)F)c3c1S(=O)(=O)CCC3)C=NN(C)C2=O (centres unmarked) [Compound B-5]	132 to 134 °C	≥ 80%		≥ 80%		≥ 80%		≥ 80%		≥ 80%	
COC12OC1(c1cc3c(cc1S(C)(=O)=O)CCC3)C=NN(C)C2=O (centres unmarked) [Compound B-6]	150 to 153 °C			≥ 80%	≥ 80%	≥ 80%	≥ 80%	≥ 80%	≥ 80%	≥ 80%	≥ 80%
COC12OC1(c1cccc3c1CCCS3(=O)=O)C=NN(C)C2=O (centres unmarked) [Compound B-7]	179 to 181 °C		≥ 80%		≥ 80%		≥ 80%	≥ 80%	≥ 80%		≥ 80%
COC12OC1(c1ccc(C(F)(F)F)c3c1CCCO3)C=NN(C)C2=O (centres unmarked) [Compound B-8]	153 to 155 °C						≥ 80%			≥ 80%	≥ 80%
COC12OC1(c1ccc(C(F)(F)F)c3c1CCCCS3(=O)=O)C=NN(C)C2=O (centres unmarked) [Compound B-9]		≥ 80%	≥ 80%	≥ 80%	≥ 80%	≥ 80%	≥ 80%	≥ 80%	≥ 80%	≥ 80%	≥ 80%
COC12OC1(c1ccc(C(F)(F)F)c3c1CCS3(=O)=O)C=NN(C)C2=O (centres unmarked) [Compound B-10]	172 to 177 °C					≥ 80%	≥ 80%	≥ 80%	≥ 80%	≥ 80%	≥ 80%
COC12OC1(c1cc(C)c3c(c1C)C1(CCS3(=O)=O)OCCO1)C=NN(C)C2=O (centres unmarked) [Compound B-11]			≥ 80%	≥ 80%	≥ 80%	≥ 80%	≥ 80%		≥ 80%	≥ 80%	≥ 80%
COC12OC1(c1ccc3c(c1C)S(=O)(=O)CCC3(C)C)C=NN(C)C2=O (centres unmarked) [Compound B-12]					≥ 80%		≥ 80%		≥ 80%		≥ 80%
COC12OC1(c1ccc(C(F)(F)F)c3c1OCCS3(=O)=O)C=NN(C)C2=O (centres unmarked) [Compound B-13]					≥ 80%	≥ 80%	≥ 80%	≥ 80%	≥ 80%	≥ 80%	≥ 80%
COC12OC1(c1ccc(C(F)(F)F)cc1S(C)(=O)=O)C=NN(C1CCCCO1)C2=O (centres unmarked) [Compound B-14]	65 to 66 °C		≥ 80%		≥ 80%					≥ 80%	≥ 80%
COC12OC1(c1ccc(C(F)(F)F)c(S(C)(=O)=Nc3ccc(Cl)cc3)c1C)C=NN(C)C2=O (centres unmarked) [Compound B-15]		≥ 80%		≥ 80%		≥ 80%		≥ 80%		≥ 80%	
COC12OC1(c1cc(F)c(C(F)(F)F)c3c1CCCS3(=O)=O)C=NN(C)C2=O (centres unmarked) [Compound B-16]	205 to 206 °C		≥ 80%		≥ 80%		≥ 80%		≥ 80%		≥ 80%
